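Tested at 5 concentrations; 48 h exposure; 96-well plates; endpoints linearly interpolated, else capped at highest concentration. GI50: concentration for 50% inhibition of growth. Definition used: TGI = concentration required for complete inhibition of growth.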
Columns and labels:
Experiment in all cases: NCI-60 cell line screen, 48 h
OVCAR-3 ovarian = test system: OVCAR-3 ovarian
HCC-2998 colon = test system: HCC-2998 colon
A498 renal = test system: A498 renal
COLO 205 colon = test system: COLO 205 colon
SK-MEL-5 melanoma = test system: SK-MEL-5 melanoma
CCRF-CEM leukemia = test system: CCRF-CEM leukemia
U251 CNS = test system: U251 CNS
MCF7 breast = test system: MCF7 breast

| Structure (SMILES) | GI50 (OVCAR-3 ovarian) [nM] | TGI (OVCAR-3 ovarian) [nM] | GI50 (HCC-2998 colon) [nM] | TGI (HCC-2998 colon) [nM] | GI50 (A498 renal) [nM] | TGI (A498 renal) [nM] | GI50 (COLO 205 colon) [nM] | GI50 (SK-MEL-5 melanoma) [nM] | TGI (SK-MEL-5 melanoma) [nM] | GI50 (CCRF-CEM leukemia) [nM] | TGI (CCRF-CEM leukemia) [nM] | GI50 (U251 CNS) [nM] | TGI (U251 CNS) [nM] | GI50 (MCF7 breast) [nM] | TGI (MCF7 breast) [nM] | TGI (COLO 205 colon) [nM] |
| --- | --- | --- | --- | --- | --- | --- | --- | --- | --- | --- | --- | --- | --- | --- | --- | --- |
| COc1c(C)cnc(Cn2cnc3c(Cl)nc(N)nc32)c1C | 658 | > 100000 | 457 | 10700 | 679 | 23400 | 218 | 557 | 15900 | 97 | > 100000 | 415 | > 100000 | 40.2 | > 100000 |  |
| C=C1C(=O)O[C@H]2[C@H]1CC/C(Cn1cc(CNC(=O)c3cc4ccccc4[nH]3)nn1)=C\CC[C@@]1(C)O[C@@H]21 | 2120 | 5630 | 14000 | 31500 | 18900 | 36000 | 2130 | 8100 | 23400 | 527 | 5210 | 8240 | 21800 | 2940 | 15400 | 4480 |
| O=C(/C=C/CN1CCCCC1)Nc1cc2c(Nc3ccc(F)c(Cl)c3F)ncnc2cc1OCCOC(F)F | 284 | 2550 | 1600 | 3970 | 299 | 2020 | 1600 | 1540 | 3070 | 2420 | 10700 | 1870 | 9250 | 1350 | 10300 | 4930 |
| COc1cc2c(c(OC)c1OC)-c1c(c3ccc([N+](=O)[O-])cc3c(=O)n1CCCN=[N+]=[N-])C2=O | 45200 | > 100000 | > 100000 | > 100000 | 11900 | 29600 | > 100000 | > 100000 | > 100000 | > 100000 | > 100000 | 8360 | 23300 | 1370 | > 100000 | > 100000 |
| CC1SC(c2cccc(Oc3ccccc3)c2)N(CCc2cccs2)C1=O (configuration not stated) | 1080 | 2300 | 1880 | 5750 | 1210 | 2460 | 1500 | 607 | 1870 | 747 | > 24000 | 1110 | 2490 | 551 | 5070 | 3050 |
| Nc1nc(N)c2nn(-c3ccc(C(=O)O)cc3)nc2n1 |  | > 100000 |  | > 100000 |  | > 100000 |  |  | > 100000 |  | > 100000 |  | > 100000 |  | > 100000 | > 100000 |
| CC(=O)OC1C(OC/C2=C/C3[C@@H](C(C)C)CC=C(C)[C@@H]3CC(OC(=O)/C=C/c3cn(C)cn3)[C@]3(C)C=C[C@@]2(O)O3)OCC(O)C1O (some centres not stated) | 10.5 | 26.8 | 13.4 | 65.8 | 12.2 | 106 | 11.2 | 16.5 |  | 39.9 | > 50000 | 16 | > 30300 | 14.6 | > 50000 | 97.5 |

From PubChem BioAssay (NCI)
